According to patent US10112937B2, “P2X7 modulators and methods of use” (Janssen Pharmaceutica NV, priority 2013, dated 2018):

Biological target: human P2X7 (Homo sapiens (Human), UniProt Q99572)
Test: P2X7 antagonism in human PBMCs (IL-1β release after LPS + Bz-ATP, ELISA)
Format: cell-based
Conditions: test compound 10 μM
Experimental: P2X7 Antagonism in Human Peripheral Blood Mononuclear Cells (PBMCs) and Human Whole Blood.
Human blood was collected using a blood donor program. PBMCs were isolated from blood using a Ficoll density gradient technique. Briefly, blood was laid on Ficoll solution and centrifuged at RT for 20 minutes at 2000 rpm. The buffy layer (between red blood cells and plasma) was carefully collected by aspiration, washed with PBS and centrifuged again at 1500 rpm for 15 minutes. The resulting cell pellet was washed and plated on 96 well-plates for experiments. For the Human Whole Blood experiments, 150 μl of human blood was platted on 96 well-plates. Lipopolysaccharide (LPS) (30 ng/ml) was added to each well and incubated for 1 hour. Test compounds were then added and incubated for 30 minutes. The P2X7 agonist, 2′(3′)-O-(4-benzoylbenzoyl) adenosine 5′ triphosphate (Bz-ATP) was then added at a final concentration of 0.5 mM (PBMC) or 1 mM (blood). Cells were incubated for an additional 1.5 hours. At that point, supernatant was collected and stored for IL-1β assay using manufacturer's protocol for enzyme-linked immunosorbent assay (ELISA). Data was expressed as percent control, where control is defined as the difference in IL-1β release in LPS+Bz-ATP samples and LPS only samples. Data was plotted as response (% control) versus concentration to generate IC50 values. […] Data are analyzed and graphed on Graphpad Prism 5. For analysis, each concentration point is averaged from triplicate values and the averaged values are plotted on Graphpad Prism.

Sequence of human P2X7 (Q99572 whole entry): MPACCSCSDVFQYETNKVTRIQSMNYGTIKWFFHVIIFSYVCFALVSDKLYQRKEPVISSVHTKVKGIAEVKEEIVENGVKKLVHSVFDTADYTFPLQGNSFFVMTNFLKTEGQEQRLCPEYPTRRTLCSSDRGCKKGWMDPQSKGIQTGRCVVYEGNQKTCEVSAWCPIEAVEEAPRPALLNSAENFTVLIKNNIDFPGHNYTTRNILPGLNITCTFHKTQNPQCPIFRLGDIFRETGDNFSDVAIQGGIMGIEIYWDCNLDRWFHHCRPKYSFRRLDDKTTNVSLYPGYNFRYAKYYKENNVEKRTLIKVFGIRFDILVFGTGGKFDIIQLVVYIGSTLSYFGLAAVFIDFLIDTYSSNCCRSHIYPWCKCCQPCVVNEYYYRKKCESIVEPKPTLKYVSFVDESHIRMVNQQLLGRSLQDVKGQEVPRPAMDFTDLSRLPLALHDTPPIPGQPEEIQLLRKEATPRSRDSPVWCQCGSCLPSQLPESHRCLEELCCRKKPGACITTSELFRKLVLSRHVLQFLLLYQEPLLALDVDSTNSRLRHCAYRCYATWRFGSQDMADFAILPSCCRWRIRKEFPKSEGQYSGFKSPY

Row | SMILES | PBMC 10 μM (% control) (human PBMCs) | PBMC 10 μM (% control) (LPS 30 ng/ml + 0.5 mM Bz-ATP)
1 | CC1c2nnn(-c3ncco3)c2CCN1C(=O)c1cccc(C(F)(F)F)c1Cl (stereo not shown) [Example 250, (2-Chloro-3-(trifluoromethyl)phenyl)(4-methyl-1-(oxazol-2-yl)-6,7-dihydro-1H-[1,2,3]triazolo[4,5-c]pyridin-5(4H)-yl)methanone] | −1.3 | –
2 | Cc1ccnc(-n2nnc3c2CCN(C(=O)c2cccc(C(F)(F)F)c2Cl)C3C)n1 (stereo not shown) [Example 252, (2-Chloro-3-(trifluoromethyl)phenyl)(4-methyl-1-(4-methylpyrimidin-2-yl)-6,7-dihydro-1H-[1,2,3]triazolo[4,5-c]pyridin-5(4H)-yl)methanone] | −0.8 | –
3 | Cc1cc(C)nc(-n2nnc3c2CCN(C(=O)c2cccc(C(F)(F)F)c2Cl)C3C)n1 (stereo not shown) [Example 253, (2-Chloro-3-(trifluoromethyl)phenyl)(1-(4,6-dimethylpyrimidin-2-yl)-4-methyl-6,7-dihydro-1H-[1,2,3]triazolo[4,5-c]pyridin-5(4H)-yl)methanone] | −2.6 | −2.6
4 | CCc1cccnc1-n1nnc2c1CCN(C(=O)c1cccc(C(F)(F)F)c1Cl)C2C (stereo not shown) [Example 254, (2-Chloro-3-(trifluoromethyl)phenyl)(1-(3-ethylpyridin-2-yl)-4-methyl-6,7-dihydro-1H-[1,2,3]triazolo[4,5-c]pyridin-5(4H)-yl)methanone] | 0.9 | –
5 | O=C(c1ccc(Cl)cc1Cl)N1CCc2c(nnn2-c2ncccn2)C1 [Example 257, (2,4-dichlorophenyl)(1-(pyrimidin-2-yl)-6,7-dihydro-1H-[1,2,3]triazolo[4,5-c]pyridin-5(4H)-yl)methanone] | 7.1 | –
6 | CCOc1cccnc1-n1nnc2c1CCN(C(=O)c1cccc(C(F)(F)F)c1Cl)C2C (stereo not shown) [Example 258, (2-Chloro-3-(trifluoromethyl)phenyl)(1-(3-ethoxypyridin-2-yl)-4-methyl-6,7-dihydro-1H-[1,2,3]triazolo[4,5-c]pyridin-5(4H)-yl)methanone] | −3.2 | –
7 | Cc1cccnc1-n1nnc2c1CCN(C(=O)c1cccc(C(F)(F)F)c1Cl)C2C (stereo not shown) [Example 259, (2-Chloro-3-(trifluoromethyl)phenyl)(4-methyl-1-(3-methylpyridin-2-yl)-6,7-dihydro-1H-[1,2,3]triazolo[4,5-c]pyridin-5(4H)-yl)methanone] | −3.5 | –
8 | COc1cccnc1-n1nnc2c1CCN(C(=O)c1cccc(C(F)(F)F)c1Cl)C2C (stereo not shown) [Example 260, (2-Chloro-3-(trifluoromethyl)phenyl)(1-(3-methoxypyridin-2-yl)-4-methyl-6,7-dihydro-1H-[1,2,3]triazolo[4,5-c]pyridin-5(4H)-yl)methanone] | 1.4 | –
9 | CC1Cc2c(-c3ccnn3C)nn(C)c2CN1C(=O)c1cccc(C(F)(F)F)c1Cl (stereo not shown) [Example 266, (2-chloro-3-(trifluoromethyl)phenyl)(1,5-dimethyl-3-(1-methyl-1H-pyrazol-5-yl)-4,5-dihydro-1H-pyrazolo[3,4-c]pyridin-6(7H)-yl)methanone] | 5.8 | –
10 | O=C(c1ccc(Cl)cc1F)N1CCc2c(nnn2-c2cnccn2)C1 [Example 272, (4-chloro-2-fluorophenyl)(1-(pyrazin-2-yl)-6,7-dihydro-1H-[1,2,3]triazolo[4,5-c]pyridin-5(4H)-yl)methanone] | −7.6 | –
11 | CC1c2nnn(-c3cnccn3)c2CCN1C(=O)c1cccc(C(F)(F)F)c1F (stereo not shown) [Example 273, (2-fluoro-3-(trifluoromethyl)phenyl)(4-methyl-1-(pyrazin-2-yl)-6,7-dihydro-1H-[1,2,3]triazolo[4,5-c]pyridin-5(4H)-yl)methanone] | −2.1 | –
12 | CC1c2nnn(-c3cnccn3)c2CCN1C(=O)c1ccc(Cl)cc1F (stereo not shown) [Example 274, (4-chloro-2-fluorophenyl)(4-methyl-1-(pyrazin-2-yl)-6,7-dihydro-1H-[1,2,3]triazolo[4,5-c]pyridin-5(4H)-yl)methanone] | −4.8 | –
13 | CC1c2nnn(-c3ncccn3)c2CCN1C(=O)c1ccc(Cl)cc1F (stereo not shown) [Example 275, (4-chloro-2-fluorophenyl)(4-methyl-1-(pyrimidin-2-yl)-6,7-dihydro-1H-[1,2,3]triazolo[4,5-c]pyridin-5(4H)-yl)methanone] | −8.3 | –
14 | Cc1c(C(=O)N2CCc3c(nnn3-c3cnccn3)C2)cccc1C(F)(F)F [Example 276, (2-methyl-3-(trifluoromethyl)phenyl)(1-(pyrazin-2-yl)-6,7-dihydro-1H-[1,2,3]triazolo[4,5-c]pyridin-5(4H)-yl)methanone] | −0.9 | –
15 | Cc1c(C(=O)N2CCc3c(nnn3-c3ncccn3)C2C)cccc1C(F)(F)F (stereo not shown) [Example 282, (4-methyl-1-(pyrimidin-2-yl)-6,7-dihydro-1H-[1,2,3]triazolo[4,5-c]pyridin-5(4H)-yl)(2-methyl-3-(trifluoromethyl)phenyl)methanone] | −5.5 | –
16 | CC1c2nnn(-c3ncccn3)c2CCN1C(=O)c1ccc(Cl)cc1Cl (stereo not shown) [Example 283, (2,4-dichlorophenyl)(4-methyl-1-(pyrimidin-2-yl)-6,7-dihydro-1H-[1,2,3]triazolo[4,5-c]pyridin-5(4H)-yl)methanone] | −6.3 | –
17 | C[C@H]1Cc2c(nnn2-c2ccc(F)cc2)[C@H](C)N1C(=O)c1cccc(C(F)(F)F)c1Cl [Example 285, (2-chloro-3-(trifluoromethyl)phenyl)((4S,6S)-1-(4-fluorophenyl)-4,6-dimethyl-6,7-dihydro-1H-[1,2,3]triazolo[4,5-c]pyridin-5(4H)-yl)methanone] | −2.6 | –
18 | C[C@@H]1Cc2c(nnn2-c2ccc(F)cc2)[C@H](C)N1C(=O)c1cccc(C(F)(F)F)c1Cl [Example 286, (2-chloro-3-(trifluoromethyl)phenyl)((4S,6R)-1-(4-fluorophenyl)-4,6-dimethyl-6,7-dihydro-1H-[1,2,3]triazolo[4,5-c]pyridin-5(4H)-yl)methanone] | 5.8 | –
19 | C[C@@H]1c2nnn(-c3ccc(F)cc3)c2C[C@H](C)N1C(=O)c1cccc(C(F)(F)F)c1Cl [Example 287, (2-chloro-3-(trifluoromethyl)phenyl)((4R,6S)-1-(4-fluorophenyl)-4,6-dimethyl-6,7-dihydro-1H-[1,2,3]triazolo[4,5-c]pyridin-5(4H)-yl)methanone] | −4.1 | −4.1
20 | C[C@H]1Cc2c(nnn2-c2ccccc2)CN1C(=O)c1cccc(C(F)(F)F)c1Cl [Example 288, (S)-(2-chloro-3-(trifluoromethyl)phenyl)(6-methyl-1-phenyl-6,7-dihydro-1H-[1,2,3]triazolo[4,5-c]pyridin-5(4H)-yl)methanone] | 4.4 | –
21 | C[C@@H]1Cc2c(nnn2-c2ccn[nH]2)[C@@H](C)N1C(=O)c1cccc(C(F)(F)F)c1Cl [Example 296, (2-chloro-3-(trifluoromethyl)phenyl)((4R,6R)-4,6-dimethyl-1-(1H-pyrazol-5-yl)-6,7-dihydro-1H-[1,2,3]triazolo[4,5-c]pyridin-5(4H)-yl)methanone] | 3.6 | –
22 | C[C@@H]1Cc2c(nnn2-c2ccn[nH]2)[C@H](C)N1C(=O)c1cccc(C(F)(F)F)c1Cl [Example 297, (2-chloro-3-(trifluoromethyl)phenyl)((4S,6R)-4,6-dimethyl-1-(1H-pyrazol-5-yl)-6,7-dihydro-1H-[1,2,3]triazolo[4,5-c]pyridin-5(4H)-yl)methanone] | 2.6 | –
23 | Cc1ccnc(-n2nnc3c2CCN(C(=O)c2cccc(C(F)(F)F)c2Cl)C3C)c1 (stereo not shown) [Example 299, (2-chloro-3-(trifluoromethyl)phenyl)(4-methyl-1-(4-methylpyridin-2-yl)-6,7-dihydro-1H-[1,2,3]triazolo[4,5-c]pyridin-5(4H)-yl)methanone] | 1.5 | –
24 | Cc1cc(C)nc(-n2nnc3c2CCN(C(=O)c2cccc(C(F)(F)F)c2Cl)C3C)c1 (stereo not shown) [Example 300, (2-chloro-3-(trifluoromethyl)phenyl)(1-(4,6-dimethylpyridin-2-yl)-4-methyl-6,7-dihydro-1H-[1,2,3]triazolo[4,5-c]pyridin-5(4H)-yl)methanone] | −1.8 | –
25 | Cc1ccc(-n2nnc3c2CCN(C(=O)c2cccc(C(F)(F)F)c2Cl)C3C)nc1 (stereo not shown) [Example 301, (2-chloro-3-(trifluoromethyl)phenyl)(4-methyl-1-(5-methylpyridin-2-yl)-6,7-dihydro-1H-[1,2,3]triazolo[4,5-c]pyridin-5(4H)-yl)methanone] | −2.2 | –
26 | Cc1cccc(-n2nnc3c2CCN(C(=O)c2cccc(C(F)(F)F)c2Cl)C3C)n1 (stereo not shown) [Example 302, (2-chloro-3-(trifluoromethyl)phenyl)(4-methyl-1-(6-methylpyridin-2-yl)-6,7-dihydro-1H-[1,2,3]triazolo[4,5-c]pyridin-5(4H)-yl)methanone] | −2.8 | –
27 | CC1c2nn(COCC[Si](C)(C)C)c(-c3ncc(F)cn3)c2CCN1C(=O)c1cccc(C(F)(F)F)c1Cl (stereo not shown) [Example 303, (2-chloro-3-(trifluoromethyl)phenyl)(3-(5-fluoropyrimidin-2-yl)-7-methyl-2-((2-(trimethylsilyl)ethoxy)methyl)-4,5-dihydro-2H-pyrazolo[3,4-c]pyridin-6(7H)-yl)methanone] | −1.6 | –
28 | C[C@H]1Cc2c(nnn2-c2ncc(F)cn2)CN1C(=O)c1cccc(C(F)(F)F)c1 [Example 304, (S)-(1-(5-fluoropyrimidin-2-yl)-6-methyl-6,7-dihydro-1H-[1,2,3]triazolo[4,5-c]pyridin-5(4H)-yl)(3-(trifluoromethyl)phenyl)methanone] | 3.2 | –
29 | C[C@H]1Cc2c(nnn2-c2ncc(F)cn2)CN1C(=O)c1cc(F)cc(C(F)(F)F)c1 [Example 307, (S)-(3-fluoro-5-(trifluoromethyl)phenyl)(1-(5-fluoropyrimidin-2-yl)-6-methyl-6,7-dihydro-1H-[1,2,3]triazolo[4,5-c]pyridin-5(4H)-yl)methanone] | 2.2 | –
